According to patent US20230150951A1, “2,5- OR 2,6-DISUBSTITUTED HYDROQUINONE DERIVATIVES WITH AT LEAST ONE CARBOXY, SULFO OR AMIDO GROUP USEFUL AS MEDICAMENTS” (OM PHARMA SA, priority 2020, published 2023):
Where two headings read alike, the source gives them in different places.

Key:
Type in all cases: cell-based
FGF-1 = biological target: T1, FGF-1 (Homo sapiens, UniProt P05230); experiment: FGF-1 induced sprouting of HUVEC, spheroid-based cellular angiogenesis assay; details: FGF-1 25 ng/mL preincubated with compound, 24 h
T1 construct: purchased Peprotech 100-17A
Summary of the method: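 Spheroids of 400 HUVEC (passage 3–4), embedded in collagen gel, were stimulated with FGF-1, FGF-2 or VEGF-A (final 25 ng/mL) preincubated 30 min at 37°C with compound (final 1.56–100 μM).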

IL-18 = experiment: Cytokine release after LPS induction on human whole blood: IL-18
Protocol: (§1) Aim of this in vitro method is to assess compounds effects on release of a panel of cytokines from whole blood following lipopolysaccharide (LPS) induced inflammatory reaction. Whole blood was incubated with compounds for 1 h prior to LPS induction. Cytokine levels in blood were measured using a multiplex FACS-based panel.
(§2) IC50 values determined for the tested compounds expressed in microM [μM] and the values for the inhibition of cytokines were listed for each compound.
(§3) Effect on cytokines release after LPS induction was performed on the compounds dissolved in DMSO or H2O to reach 10-fold concentrated stock solutions and dissolved in culture media.
(§4) Test system: Whole blood was removed from a single donor (into lithium heparin coated tubes; BD Vacutainer; 367886) and diluted 1:5 with RPMI 1640 (Thermo Fisher, 61870036). Within 30 minutes of sampling, blood was incubated with compounds for 1 h prior to LPS stimulation (O111:B4—Sigma L4391; 10 ng/ml final concentration). Stimulation continued under standard cell culture conditions (37° C. with 5% CO2) overnight (18 h), after which plates were centrifuged and supernatant removed and frozen at −80° C. until used for analyses.
(§5) Dilution of test compounds: 10×concentrated solutions (concerning to the final assay concentrations) of each test compound were prepared with the appropriate solvent (in DMSO or in water). These 10× compound solutions (10 μl) were then added to 90 μl pre-diluted whole blood (whole blood: RPMI1640, 1:5) resulting in the final assay concentration.
(§6) Test method: Diluted whole blood (80 μl) was pre-incubated with compounds (10 μl) to give final assay concentrations of 100, 30, 10, 3, 1, 0.3 and 0.1×10^−6M. Blood was incubated at 37° C. with 5% CO2 for 1 h. LPS was diluted in cell culture media to a concentration of […]; 10 μl was added to the whole blood to give a final concentration of 10 ng/ml. Plates were incubated at 37° C. for 18 h. Plates were centrifuged at 3,000 RPM for 5 minutes at 4° C. and supernatant removed and frozen at −80° C. until FACS analysis was carried out.
(§7) Cytokine release was measured using a custom multiplex system (ELISA Genie) according to manufacturers instructions. Prepared samples were run on an Attune NxT flow cytometer (Thermo Fisher).
(§8) Quantification of cytokine release inhibition: known concentration standards were run as part of the cytokine panel to allow quantification of each cytokine concentration in each sample. This was carried out using FCAP Array v3.0 software.
(§9) Results: The dose response relationship on cytokine release following LPS induction of inflammatory response in whole blood was assessed for all compounds. IC50 values were determined for each compound for a panel of cytokines (GM-CSF, IFN-gamma, IL-1beta, IL-2, IL-4, IL-5, IL-6, IL-8, IL-9, IL-10, IL-12p40, IL-13, IL-17A, IL-17F, IL-18, IL-21, IL-22, IL-33, TGF-beta, TNF-alpha, TNF-beta).

TNF-alpha = experiment: Cytokine release after LPS induction on human whole blood: TNFα
Protocol: as §1, §2, §3, §4, §5, §6, §7, §8, §9

[1] = Homo sapiens, LPS 10 ng/ml, 18 h, read-out: Whole Blood: IL-18 IC50
[2] = human whole blood, inhibition of LPS induced inflammation, read-out: IC50 IL-18
[3] = Homo sapiens, LPS 10 ng/ml, 18 h, read-out: Whole Blood: TNF α IC50
[4] = human whole blood, inhibition of LPS induced inflammation, read-out: IC50 TNFa

T1 sequence (P05230 whole entry): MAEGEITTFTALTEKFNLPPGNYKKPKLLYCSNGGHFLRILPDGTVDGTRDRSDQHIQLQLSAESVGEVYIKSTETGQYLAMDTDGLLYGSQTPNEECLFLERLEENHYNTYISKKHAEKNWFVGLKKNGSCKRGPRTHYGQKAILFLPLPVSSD

| SMILES | IC50 (FGF-1) [µM] | IC50 (IL-18; [1]) [µM] | IC50 (IL-18; [2]) [µM] | IC50 (TNF-alpha; [3]) [µM] | IC50 (TNF-alpha; [4]) [µM] | IC50 (IL-18; Homo sapiens, 18 h, read-out: Whole Blood: IL-18 IC50) [µM] | IC50 (IL-18; Homo sapiens, read-out: IC50 IL-18) [µM] | IC50 (TNF-alpha; Homo sapiens, 18 h, read-out: Whole Blood: TNF α IC50) [µM] | IC50 (TNF-alpha; Homo sapiens, read-out: IC50 TNFa) [µM] |
| --- | --- | --- | --- | --- | --- | --- | --- | --- | --- |
| O=C(O)Cc1cc(O)c(C(=O)Nc2ccccc2-c2nnn[nH]2)cc1O [IIIa-001aTz] | 51 | 27.7 | 27.7 | 0.31 | 0.31 |  |  |  |  |
| O=C(O)Cc1cc(O)c(C(=O)Nc2c(C(=O)O)cccc2C(=O)O)cc1O [IIIa-013a, 2-(4-(carboxymethyl)-2,5-dihydroxybenzamido)isophthalic acid] | 17 | > 100 | 100 | 0.51 | 0.51 |  |  |  |  |
| CC(=O)N(Cc1cc(O)c(C(=O)O)cc1O)Cc1cc(O)c(C(=O)O)cc1O [IIIc-057a, N,N-Bis(4-carboxy-2,5-dihydroxyphenylmethyl)acetamide] | 87 | > 100 | 100 | 0.15 | 0.15 |  |  |  |  |
| O=C(O)c1cc(O)c(CN(Cc2cc(O)c(C(=O)O)cc2O)Cc2cc(O)c(C(=O)O)cc2O)cc1O [IIIc-061a, Tris(4-carboxy-2,5-dihydroxyphenylmethyl)amine] |  | 32.4 | 32.4 | 0.03 | 0.03 |  |  |  |  |
| O=C(O)c1ccccc1CNC(=O)c1cc(O)cc(C(=O)O)c1O [IIa-053a, 3-(2-Carboxyphenylmethylaminocarbonyl)-2,5-dihydroxybenzoic acid] | 84 | > 100 | 100 | 0.02 | 0.02 |  |  |  |  |
| O=C(O)c1cc(NC(=O)c2cc(O)cc(C(=O)Nc3ccc(O)c(C(=O)O)c3)c2O)ccc1O [IIc-007a, 5-(3-(3-carboxy-4-hydroxyphenylaminocarbonyl)-2,5-dihydroxybenzamido)-2-hydroxy benzoic acid] | 11 | > 100 | 100 | 0.03 | 0.03 |  |  |  |  |
| O=C(O)c1cc(O)ccc1NC(=O)c1cc(O)cc(C(=O)Nc2ccc(O)cc2C(=O)O)c1O [IIc-009a, 2-(3-(2-carboxy-4-hydroxyphenylaminocarbonyl)-2,5-dihydroxybenzamido)-5-hydroxyl benzoic acid] | 30 | 2.95 | 2.95 | 0.11 | 0.11 |  |  |  |  |
| O=C(O)c1cc(NC(=O)c2cc(O)c(C(=O)Nc3ccccc3-c3nnn[nH]3)cc2O)ccc1O [Ic-001a-Tz/004a, 5-(4-(2-(1H-tetrazol-5-yl)phenylaminocarbonyl)-2,5-dihydroxybenzamido)-2-hydroxy benzoic acid] | 19 |  |  |  |  | 46.6 | 46.6 | 0.002 | 0.002 |
| O=C(O)c1cc(NC(=O)c2cc(O)c(C(=O)Nc3ccc(O)c(C(=O)O)c3)cc2O)ccc1O [Ic-007a, 5-(4-(3-carboxy-4-hydroxyphenylaminocarbonyl)-2,5-dihydroxybenzamido)-2-hydroxy benzoic acid] | 13 | > 100 | 100 | 0.27 | 0.27 |  |  |  |  |

More lines, main results first:

| IC50 (FGF-1) [µM] | IC50 (IL-18; [1]) [µM] | IC50 (IL-18; [2]) [µM] | IC50 (TNF-alpha; [3]) [µM] | IC50 (TNF-alpha; [4]) [µM] | SMILES | IC50 (IL-18; Homo sapiens, 18 h, read-out: Whole Blood: IL-18 IC50) [µM] | IC50 (IL-18; Homo sapiens, read-out: IC50 IL-18) [µM] | IC50 (TNF-alpha; Homo sapiens, 18 h, read-out: Whole Blood: TNF α IC50) [µM] | IC50 (TNF-alpha; Homo sapiens, read-out: IC50 TNFa) [µM] |
| --- | --- | --- | --- | --- | --- | --- | --- | --- | --- |
| 36 | > 100 | 100 | 0.18 | 0.18 | O=C(O)c1cc(O)cc(CSCc2cc(O)cc(C(=O)O)c2O)c1O [IVc-058a, 3-((2,5-Dihydroxy-3-carboxyphenyl)methylthiomethyl)-2,5-dihydroxybenzoic acid] |  |  |  |  |
| 6.7 | > 100 | 100 | 0.16 | 0.16 | O=C(O)c1cc(O)cc(CS(=O)(=O)Cc2cc(O)cc(C(=O)O)c2O)c1O [IVc-059a, 3-((2,5-Dihydroxy-3-carboxyphenyl)methylsulfonylmethyl)-2,5-dihydroxybenzoic acid] |  |  |  |  |
| 54 | > 100 | 100 | 0.3 | 0.3 | COC(=O)c1cc(OC(C)=O)cc(CS(=O)(=O)Cc2cc(OC(C)=O)cc(C(=O)OC)c2OC(C)=O)c1OC(C)=O [IVc-059a-E2-A4] |  |  |  |  |
| 41 | > 100 | 100 | 0.02 | 0.02 | O=C(O)c1cc(O)c(C(=O)Nc2ccccc2C(=O)O)cc1O [Ia-001a, 4-(2-carboxyphenylaminocarbonyl)-2,5-dihydroxybenzoic acid] |  |  |  |  |
| 6.2 | > 100 | 100 | 0.63 | 0.63 | O=C(O)c1cc(O)c(C(=O)Nc2ccccc2-c2nnn[nH]2)cc1O [Ia-001a-Tz, 4-(2-(1H-tetrazol-5-yl)phenyl-aminocarbonyl)-2,5-dihydroxybenzoic acid] |  |  |  |  |
| 21 | > 100 | 100 | 0.05 | 0.05 | O=C(O)c1cc(O)c(C(=O)Nc2ccccc2S(=O)(=O)O)cc1O [Ia-001c, 2,5-dihydroxy-4-(2-sulfophenylaminocarbonyl)benzoic acid] |  |  |  |  |
| 6.7 | > 100 | 100 | 0.18 | 0.18 | O=C(O)c1cc(O)c(C(=O)Nc2ccc(-c3nnn[nH]3)cc2)cc1O [Ia-003a-Tz, 4-(4-(1H-tetrazol-5-yl)phenyl-aminocarbonyl)-2,5-dihydroxybenzoic acid] |  |  |  |  |
| 20 | > 100 | 100 | 0.17 | 0.17 | O=C(O)c1cc(NC(=O)c2cc(O)c(C(=O)O)cc2O)cc(C(=O)O)c1 [Ia-015a, 5-(4-carboxy-2,5-dihydroxybenzamido)isophthalic acid] |  |  |  |  |
| 14 | > 100 | 100 | 0.31 | 0.31 | O=C(O)c1cc(NC(=O)c2cc(O)c(C(=O)O)cc2O)cc(NC(=O)c2cc(O)c(C(=O)O)cc2O)c1 [Ib-010a, 3,5-bis(2,5-dihydroxy-4-carboxybenzoylamino)benzoic acid] |  |  |  |  |
| 26 | > 100 | 100 | 0.98 | 0.98 | CCOC(=O)c1cc(NC(=O)c2cc(O)c(C(=O)OCC)cc2O)cc(NC(=O)c2cc(O)c(C(=O)OCC)cc2O)c1 [Ib-010a-E3, ethyl 3,5-bis(2,5-dihydroxy-4-ethoxycarbonylbenzoylamino)benzoate] |  |  |  |  |
| ≥ 200 | 33.9 |  | 0.1 |  | O=C(Nc1ccccc1-c1nnn[nH]1)c1cc(O)c(C(=O)Nc2ccccc2-c2nnn[nH]2)cc1O [Ic-001aTz2, N1,N4-bis(2-(1H-tetrazol-5-yl)phenyl)-2,5-dihydroxyterephthalamide] |  |  |  |  |
